Reference: publication PMC12493155, “A yeast-based in vivo assay complements in vitro and in silico approaches to characterize sterol-binding by Saccharomyces cerevisiae Lam/Ltc proteins” (The Journal of Biological Chemistry, 2025)
Counter-ions that a name gives are not always drawn.

Experiments:
Pry1 [1] = target: T1, Pry1 (Saccharomyces cerevisiae, UniProt P47032); assay: In vitro radioligand binding assay with [3H]-cholesterol; conditions: Pry1, pH 7.5, 100 pmol protein
T1 construct: made in house; host or cells: E. coli BL21
T1 sequence (P47032 20-299): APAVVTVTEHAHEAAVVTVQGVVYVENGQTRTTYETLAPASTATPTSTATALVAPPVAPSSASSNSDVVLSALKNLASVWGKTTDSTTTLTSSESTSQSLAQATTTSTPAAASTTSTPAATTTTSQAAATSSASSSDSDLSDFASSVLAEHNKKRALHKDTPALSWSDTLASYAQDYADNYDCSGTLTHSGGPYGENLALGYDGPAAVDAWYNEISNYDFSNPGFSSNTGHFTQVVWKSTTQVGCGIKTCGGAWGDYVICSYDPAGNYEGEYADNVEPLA
From the text: (§1) To validate these in vivo findings with independent in vitro approaches, Pry1, NPC2, Osh4, and STARD1 were expressed as C terminally polyhistidine-tagged proteins in Escherichia coli and purified using Ni^2+-NTA agarose beads. […] Protein-bound radioligand was separated from unbound ligand by absorption to an ion-exchange matrix ([13], [51]) (Fig. 2A).
(§2) Schematic representation of the workflow of the in vitro lipid binding assay. Purified proteins (blue, 100 pmol), different concentrations of radiolabeled [^3H]-cholesterol (green, 0–400 pmol) are incubated together to allow binding. Proteins were separated from unbound ligand by adsorption to an ion exchange matrix (gray), followed by washing steps. The protein-bound ligand is then eluted and quantified by liquid scintillation counting. Nonspecific binding is assessed in parallel by performing the assay in the absence of protein.
(§3) The in vitro radioligand binding assay was performed essentially as previously described ([13], [39]). Purified proteins (100 pmol) were incubated with 100 to 400 pmol of [^3H]-cholesterol (1 mCi/ml, specific activity 50 Ci/mmol; American Radiolabeled Chemicals, Inc), in binding buffer for 1 h at 30 °C. The pH of the binding buffer was adjusted based on the isoelectric point of the protein: for Pry1 and Osh4, 20 mM Tris (pH 7.5), 30 mM NaCl; for STARD1, the same buffer at pH 8.5; and for NPC2, 20 mM potassium acetate (pH 5.5), 30 mM NaCl.
(§4) Proteins were then separated from unbound ligand by adsorption to SP Sepharose (GE Healthcare) beads for NPC2, and to Q Sepharose beads (GE Healthcare) beads for all other proteins. Beads were washed and proteins were eluted with binding buffer containing 1 M NaCl. Protein-bound radioligand was quantified by scintillation counting. Ion exchange beads without protein were used to define nonspecific binding. Data were analyzed using Prism software (GraphPad) and are presented as the mean ± SD from three independent experiments.

NPC2 = target: T2, NPC2 (Homo sapiens, UniProt P61916); assay: as above; conditions: NPC2, pH 5.5, 100 pmol protein
T2 construct: made in house; host or cells: E. coli
T2 sequence (P61916 20-151): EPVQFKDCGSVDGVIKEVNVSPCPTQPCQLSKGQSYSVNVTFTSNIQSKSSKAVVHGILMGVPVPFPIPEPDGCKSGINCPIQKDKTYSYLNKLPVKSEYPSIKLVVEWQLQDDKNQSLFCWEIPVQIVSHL
From the text: as §1, §2, §3, §4

Osh4 [2] = target: T3, Osh4 (Saccharomyces cerevisiae, UniProt P35844); assay: as above; conditions: Osh4, pH 7.5, 100 pmol protein
T3 construct: made in house; host or cells: E. coli BL21
From the text: as §1, §2, §3, §4

StARkin domain of Lam6 = target: T4, StARkin domain of Lam6 (Saccharomyces cerevisiae, UniProt Q08001); assay: MST protein-liposome binding; conditions: Fig. 7F, StARkin domain of Lam6, DOPC/DOPE 80/20 mol% liposomes
T4 construct: Lam6^StARkin (401–579 aa, 22 kDa); made in house; host or cells: Lactococcus lactis DML1
T4 sequence (Q08001 401-579): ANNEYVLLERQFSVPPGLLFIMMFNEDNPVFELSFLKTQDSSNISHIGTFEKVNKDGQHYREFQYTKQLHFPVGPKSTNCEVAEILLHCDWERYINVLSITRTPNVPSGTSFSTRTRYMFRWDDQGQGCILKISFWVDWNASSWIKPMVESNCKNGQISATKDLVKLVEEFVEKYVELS
Experimental: To test whether the GRAM domain of Lam6 could function as a coincidence detector recognizing both PS and ergosterol simultaneously, as observed with the GRAM domain of Aster-B/GRAM1b, we assessed liposome binding by isolated GRAM and StARkin domains ([58], [60]).
Lipids were dried from chloroform stock solutions using a rotary evaporator or under a gentle nitrogen gas stream. The dried lipid film was resuspended in 1 ml liposome buffer (25 mM Tris (pH 7.5), 50 mM NaCl) to a final concentration of 2 mM phospholipids. The phospholipid suspension was then subjected to ten freeze-thaw cycles, alternating between liquid nitrogen and a 55 °C water bath.
The resulting multilamellar liposomes were extruded nineteen times through a polycarbonate filter of 0.8 μm pore size to generate large unilamellar vesicles.

Lam6 (ΔTMD) = target: T5, Lam6 (ΔTMD) (Saccharomyces cerevisiae, UniProt Q08001); assay: Microscale thermophoresis (MST) ligand binding; conditions: soluble Lam6 (ΔTMD)
T5 construct: Lam5 (1–633 aa), and Lam6 (1–621 aa); made in house; host or cells: E. coli BL21
T5 sequence (Q08001 1-621): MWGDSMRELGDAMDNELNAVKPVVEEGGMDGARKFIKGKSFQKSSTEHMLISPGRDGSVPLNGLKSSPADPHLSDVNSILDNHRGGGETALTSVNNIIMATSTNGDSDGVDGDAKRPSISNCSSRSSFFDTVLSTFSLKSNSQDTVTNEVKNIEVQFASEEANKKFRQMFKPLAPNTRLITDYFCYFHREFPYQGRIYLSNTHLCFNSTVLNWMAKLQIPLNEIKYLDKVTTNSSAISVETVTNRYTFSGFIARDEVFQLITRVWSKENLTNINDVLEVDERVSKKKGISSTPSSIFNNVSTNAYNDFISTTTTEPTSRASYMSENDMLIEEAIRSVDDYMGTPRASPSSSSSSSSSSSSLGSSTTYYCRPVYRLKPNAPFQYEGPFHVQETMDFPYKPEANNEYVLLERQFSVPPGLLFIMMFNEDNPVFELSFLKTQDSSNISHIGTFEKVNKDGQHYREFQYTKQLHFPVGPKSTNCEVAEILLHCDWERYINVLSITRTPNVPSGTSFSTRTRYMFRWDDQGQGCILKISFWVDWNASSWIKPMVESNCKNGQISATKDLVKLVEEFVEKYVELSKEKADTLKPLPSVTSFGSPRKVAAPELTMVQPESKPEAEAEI
From the text: (§5) To corroborate these in vivo findings, we expressed soluble versions (ΔTMD) of Lam5 and Lam6 as polyhistidine-tagged proteins and assessed their sterol binding capacity using MST.

Lam5 (ΔTMD) = target: T6, Lam5 (ΔTMD) (Saccharomyces cerevisiae, UniProt P43560); assay: Microscale thermophoresis (MST) ligand binding; conditions: soluble Lam5 (ΔTMD)
T6 construct: Lam5 (1–633 aa), and Lam6 (1–621 aa); made in house; host or cells: E. coli BL21
T6 sequence (P43560 1-633): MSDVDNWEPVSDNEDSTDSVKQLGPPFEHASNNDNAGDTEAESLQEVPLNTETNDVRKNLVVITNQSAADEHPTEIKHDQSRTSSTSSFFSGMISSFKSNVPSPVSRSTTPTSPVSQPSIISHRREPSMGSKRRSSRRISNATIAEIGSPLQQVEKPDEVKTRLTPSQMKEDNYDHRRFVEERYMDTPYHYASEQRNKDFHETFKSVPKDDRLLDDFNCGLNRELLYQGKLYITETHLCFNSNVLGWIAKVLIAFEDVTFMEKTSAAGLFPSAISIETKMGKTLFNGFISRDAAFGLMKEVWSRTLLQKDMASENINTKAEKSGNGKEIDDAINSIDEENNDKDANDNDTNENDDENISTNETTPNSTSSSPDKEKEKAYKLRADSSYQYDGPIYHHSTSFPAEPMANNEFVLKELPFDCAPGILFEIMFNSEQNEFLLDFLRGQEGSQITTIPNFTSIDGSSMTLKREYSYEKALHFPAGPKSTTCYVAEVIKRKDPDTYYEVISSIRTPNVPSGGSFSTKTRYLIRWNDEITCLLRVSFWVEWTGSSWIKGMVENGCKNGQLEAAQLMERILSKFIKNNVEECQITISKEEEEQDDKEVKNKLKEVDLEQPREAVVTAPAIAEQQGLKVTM
From the text: as §5

Pry1 [3] = target: T1, Pry1; assay: Microscale thermophoresis (MST) ligand binding; conditions: Pry1, pH 7.5, 50 nM protein
Experimental: (§6) This polyhistidine-tagged protein is site-specific fluorescently labeled (RED-tris-NTA, green star). The labeled protein is incubated with varying concentrations of ligand, loaded into glass capillaries, the capillaries are locally heated with an infrared (IR) laser, generating a temperature gradient, and the rate of temperature-induced diffusion of the ligand-bound protein was recorded and plotted as a function of ligand concentration. B, sterol binding by Pry1, NPC2, Osh4, and STARD1 measured by MST. […] Binding by Pry1, Osh4 was assessed at pH 7.5, STARD1 at pH 8.5, and NPC2 binding affinity was determined at pH 5.5. […] Data shown in panelB represent the mean ± SD of three independent experiments. MST, microscale thermophoresis; NPC2, Niemann-Pick type C2; Pry, pathogen-related in yeast; STARD1, steroidogenic acute regulatory protein 1.
(§7) Purified proteins were fluorescently labeled using the RED-tris-NTA His tag protein labeling kit (NanoTemper Technologies) ([52]). […] Binding by Pry1, Osh4, and the StARkin domains was assessed at pH 7.5, STARD1 at pH 8.5, and NPC2 binding affinity was determined at pH 5.5.
(§8) Samples were centrifuged for 5 min at 15,000g at 4 °C and loaded into standard MST capillaries. The dissociation constant Kd was determined by plotting the fraction of ligand-bound protein against the logarithm of the ligand concentrations, using Prism software (GraphPad).

STARD1 = target: T7, STARD1 (Homo sapiens, UniProt P49675); assay: Microscale thermophoresis (MST) ligand binding; conditions: STARD1, pH 8.5, 50 nM protein
T7 construct: made in house; host or cells: E. coli BL21
T7 sequence (P49675 64-285): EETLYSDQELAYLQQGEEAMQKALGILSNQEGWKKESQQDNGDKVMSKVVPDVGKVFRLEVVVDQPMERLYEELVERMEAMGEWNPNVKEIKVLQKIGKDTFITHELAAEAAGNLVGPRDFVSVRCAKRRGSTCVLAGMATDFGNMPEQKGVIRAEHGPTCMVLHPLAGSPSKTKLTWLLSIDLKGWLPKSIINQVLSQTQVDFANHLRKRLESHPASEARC
Experimental: as §6, §7, §8

Osh4 [4] = target: T3, Osh4; assay: Microscale thermophoresis (MST) ligand binding; conditions: Osh4, pH 7.5, 50 nM protein
Experimental: as §6, §7, §8

Sip3^StARkin = target: T8, Sip3^StARkin (Saccharomyces cerevisiae, UniProt P38717); assay: biochemical; assay type: binding
T8 construct: Sip3^StARkin (733–1002 aa, 32.5 kDa); made in house; host or cells: Lactococcus lactis DML1
T8 sequence (P38717 733-1002): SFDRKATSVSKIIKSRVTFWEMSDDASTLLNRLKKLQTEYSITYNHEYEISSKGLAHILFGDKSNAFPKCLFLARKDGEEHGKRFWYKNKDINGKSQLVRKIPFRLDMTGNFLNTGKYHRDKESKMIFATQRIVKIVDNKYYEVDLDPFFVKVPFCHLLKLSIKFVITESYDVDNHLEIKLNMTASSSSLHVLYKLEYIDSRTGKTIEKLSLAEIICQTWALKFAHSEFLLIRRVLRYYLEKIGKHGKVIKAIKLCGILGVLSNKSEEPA
Experimental: (§9) To further characterize these domains, we expressed and purified Ysp1^StARkin, Sip3^StARkin, Lam4^StARkin1, and Lam4^StARkin2 from bacterial cells and assessed their sterol-binding affinities using MST.
as §7, §8

Lam4^StARkin2 = target: T9, Lam4^StARkin2 (Saccharomyces cerevisiae, UniProt P38800); assay: Microscale thermophoresis (MST) ligand binding; conditions: Lam4^StARkin2, pH 7.5
T9 construct: StARkin2, 967–1139 aa, 34.6 kDa; made in house; host or cells: E. coli BL21
From the text: as §9

Ysp1^StARkin = target: T10, Ysp1^StARkin (Saccharomyces cerevisiae, UniProt P38851); assay: Microscale thermophoresis (MST) ligand binding; conditions: pH 7.5
T10 construct: Ysp1^StARkin (765–978 aa, 26.9 kDa); made in house; host or cells: E. coli BL21
T10 sequence (P38851 765-978): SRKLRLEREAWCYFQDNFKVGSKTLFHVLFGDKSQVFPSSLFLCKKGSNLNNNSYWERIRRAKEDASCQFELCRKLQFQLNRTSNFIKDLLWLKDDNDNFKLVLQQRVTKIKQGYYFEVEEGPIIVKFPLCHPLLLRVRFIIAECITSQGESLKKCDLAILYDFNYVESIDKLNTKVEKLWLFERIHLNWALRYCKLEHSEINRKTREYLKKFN
From the text: as §9

Lam4^StARkin1 = target: T11, Lam4^StARkin1 (Saccharomyces cerevisiae, UniProt P38800); assay: Microscale thermophoresis (MST) ligand binding; conditions: Lam4^StARkin1, pH 7.5
T11 construct: both StARkin domains of Lam4 (StARkin1, 758–930 aa, 20.3 kDa); made in house; host or cells: E. coli BL21
From the text: as §9

T11 sequence (P38800 758-930): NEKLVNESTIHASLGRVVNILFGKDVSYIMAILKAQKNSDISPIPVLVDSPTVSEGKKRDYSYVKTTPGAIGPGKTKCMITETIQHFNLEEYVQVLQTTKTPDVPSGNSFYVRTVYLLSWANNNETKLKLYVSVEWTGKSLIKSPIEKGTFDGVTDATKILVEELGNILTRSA
T9 sequence (P38800 967-1139): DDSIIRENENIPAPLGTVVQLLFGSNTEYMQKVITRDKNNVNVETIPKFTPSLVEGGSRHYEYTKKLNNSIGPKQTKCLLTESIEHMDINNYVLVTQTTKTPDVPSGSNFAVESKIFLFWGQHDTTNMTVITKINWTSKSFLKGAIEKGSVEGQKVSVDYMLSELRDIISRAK

## CC(C)CCC[C@@H](C)[C@H]1CC[C@H]2[C@@H]3CC=C4C[C@@H](O)CC[C@]4(C)[C@H]3CC[C@]12C [cholesterol]
Pry1 [1]
  Kd: 2.4 µM
NPC2
  Kd: 1.6 µM
Osh4 [2]
  Kd: 2.3 µM

## CC(C)[C@@H](C)/C=C/[C@@H](C)[C@H]1CC[C@H]2C3=CC=C4C[C@@H](O)CC[C@]4(C)[C@H]3CC[C@]12C [ergosterol]
StARkin domain of Lam6
  Kd: 8.6 ± 3.4 µM

## CC(C)CCC[C@@H](C)[C@H]1CC[C@H]2[C@@H]3CC=C4C[C@@H](OS(=O)(=O)O)CC[C@]4(C)[C@H]3CC[C@]12C [cholesterol sulfate]
Lam6 (ΔTMD)
  Kd: 0.09 µM
Lam5 (ΔTMD)
  Kd: 0.29 µM
Pry1 [3]
  Kd: 1.75 µM
STARD1
  Kd: 0.064 µM
Osh4 [4]
  Kd: 1.69 µM
Sip3^StARkin
  Kd: 0.53 µM
Lam4^StARkin2
  Kd: 0.34 µM
Ysp1^StARkin
  Kd: 0.047 µM
Lam4^StARkin1
  Kd: 0.071 µM
